One block for each compound: values may come before it. Calls of active or inactive are those of the source. No cut-off for these calls is given here.
Tests used:
[1] = species: Homo sapiens; assay: Selectivity for human recombinant MAOA over human recombinant MAOB
[2] = target: T1, Amine oxidase [flavin-containing] B (Homo sapiens, UniProt P27338); assay: Inhibition of human recombinant MAOB assessed as 4-hydroxyquinoline formation by fluorimetry
T1 sequence (P27338 whole entry): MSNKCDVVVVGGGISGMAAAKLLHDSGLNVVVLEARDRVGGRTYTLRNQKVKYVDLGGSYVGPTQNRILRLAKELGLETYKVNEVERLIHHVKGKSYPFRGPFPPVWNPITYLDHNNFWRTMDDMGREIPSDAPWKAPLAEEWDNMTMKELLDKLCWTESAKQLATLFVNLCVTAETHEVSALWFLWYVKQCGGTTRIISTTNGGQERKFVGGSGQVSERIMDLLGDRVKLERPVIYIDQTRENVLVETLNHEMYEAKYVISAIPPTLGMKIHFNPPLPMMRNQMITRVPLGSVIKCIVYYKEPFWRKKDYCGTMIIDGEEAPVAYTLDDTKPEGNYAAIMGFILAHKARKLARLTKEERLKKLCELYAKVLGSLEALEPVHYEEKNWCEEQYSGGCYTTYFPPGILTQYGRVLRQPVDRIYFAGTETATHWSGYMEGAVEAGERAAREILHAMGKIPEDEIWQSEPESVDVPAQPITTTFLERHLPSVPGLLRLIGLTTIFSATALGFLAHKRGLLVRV

[3] = Inhibition of MAOB in baboon liver mitochondria assessed as MMDP+ production by spectrophotometry; set-up: species or system Papio hamadryas
[4] = target: T2, Amine oxidase [flavin-containing] A (Homo sapiens, UniProt P21397); assay: Inhibition of human recombinant MAOA assessed as 4-hydroxyquinoline formation by fluorimetry
T2 sequence (P21397 whole entry): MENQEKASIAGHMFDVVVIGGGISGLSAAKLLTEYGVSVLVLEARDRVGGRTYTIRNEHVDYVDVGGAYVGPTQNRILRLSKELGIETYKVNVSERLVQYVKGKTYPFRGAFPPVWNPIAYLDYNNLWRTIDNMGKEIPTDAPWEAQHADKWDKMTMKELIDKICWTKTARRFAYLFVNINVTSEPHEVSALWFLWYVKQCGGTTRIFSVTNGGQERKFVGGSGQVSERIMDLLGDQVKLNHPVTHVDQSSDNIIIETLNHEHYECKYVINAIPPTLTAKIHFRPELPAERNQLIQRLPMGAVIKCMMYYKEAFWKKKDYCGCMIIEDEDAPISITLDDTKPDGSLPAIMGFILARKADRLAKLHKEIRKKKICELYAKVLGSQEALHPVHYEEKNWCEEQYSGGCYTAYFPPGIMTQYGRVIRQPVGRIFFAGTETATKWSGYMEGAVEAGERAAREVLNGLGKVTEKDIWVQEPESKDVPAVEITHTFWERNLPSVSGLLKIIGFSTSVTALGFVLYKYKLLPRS

[5] = target: T1, Amine oxidase [flavin-containing] B; assay: Competitive inhibition of human recombinant MAOB by Lineweaver-Burke plot
[6] = species: Papio hamadryas; assay: Competitive inhibition of MAOB in baboon liver mitochondria by Lineweaver-Burke plot
[7] = target: T2, Amine oxidase [flavin-containing] A; assay: Reversible inhibition of human recombinant MAOA assessed as 4-hydroxyquinoline formation by fluorimetry
[8] = target: T2, Amine oxidase [flavin-containing] A; assay: Competitive inhibition of human recombinant MAOA by Lineweaver-Burke plot
[9] = target: T2, Amine oxidase [flavin-containing] A; assay: Reversible inhibition of human recombinant MAOA at 1.31 uM assessed as 4-hydroxyquinoline formation by fluorimetry
[10] = target: T1, Amine oxidase [flavin-containing] B; assay: Reversible inhibition of human recombinant MAOB at 0.23 uM assessed as 4-hydroxyquinoline formation by fluorimetry
[11] = species: Papio hamadryas; assay: Reversible inhibition of MAOB in baboon liver mitochondria at 0.28 uM assessed as MMDP+ production by spectrophotometry

Compound: Cn1c(=O)c2c(nc(OCc3cccc(C(F)(F)F)c3)n2C)n(C)c1=O
inhibition (INH) [5]: Active
inhibition [6]: Active
Ratio Ki [1]: 0.039
IC50 [2]: 3720 nM
Ki [2]: 1300 nM
inhibition (INH) [7]: Active
inhibition (INH) [8]: Active
IC50 [3]: 112 nM
Ki [3]: 65 nM
IC50 [4]: 152 nM
Ki [4]: 51 nM

Compound: Cn1c(=O)c2c(nc(OCc3cccc(F)c3)n2C)n(C)c1=O
Ratio Ki [1]: 0.49
IC50 [2]: 1070 nM
Ki [2]: 370 nM
IC50 [3]: 534 nM
Ki [3]: 310 nM
IC50 [4]: 542 nM
Ki [4]: 180 nM

Compound: Cn1c(=O)c2c(nc(OCc3ccccc3)n2C)n(C)c1=O
Ratio Ki [1]: 1.37
IC50 [2]: 1240 nM
Ki [2]: 430 nM
IC50 [3]: 2490 nM
Ki [3]: 1440 nM
IC50 [4]: 1770 nM
Ki [4]: 590 nM

Compound: COc1cccc(COc2nc3c(c(=O)n(C)c(=O)n3C)n2C)c1
Ratio Ki [1]: 0.31
IC50 [2]: 3150 nM
Ki [2]: 1100 nM
IC50 [3]: 1590 nM
Ki [3]: 920 nM
IC50 [4]: 1010 nM
Ki [4]: 340 nM

Now those with a lower IC50 [2], led by results:

Ratio Ki [1]: 0.069
IC50 [2]: 941 nM
Ki [2]: 330 nM
IC50 [3]: 113 nM
Ki [3]: 65 nM
IC50 [4]: 68 nM
Ki [4]: 23 nM
Compound: Cn1c(=O)c2c(nc(OCc3cccc(Br)c3)n2C)n(C)c1=O

inhibition (INH) [9]: Active
Ratio Ki [1]: 0.16
IC50 [2]: 666 nM
Ki [2]: 230 nM
inhibition (INH) [10]: Active
IC50 [3]: 120 nM
Ki [3]: 69 nM
inhibition [11]: Active
IC50 [4]: 107 nM
Ki [4]: 36 nM
Compound: Cn1c(=O)c2c(nc(OCc3cccc(Cl)c3)n2C)n(C)c1=O

Ratio Ki [1]: 1.29
IC50 [2]: 397 nM
Ki [2]: 140 nM
IC50 [3]: 698 nM
Ki [3]: 400 nM
IC50 [4]: 546 nM
Ki [4]: 180 nM
Compound: Cc1cccc(COc2nc3c(c(=O)n(C)c(=O)n3C)n2C)c1

Source: ChEMBL document CHEMBL1156881, “Inhibition of monoamine oxidase by 8-benzyloxycaffeine analogues” (Bioorg Med Chem, 2010)
